Publication PMC5625161 (Pharmacology Research & Perspectives, 2017)
Like-named read-outs stand apart in the source and are kept apart here. Marks after values point to notes of the source that are not given here. Values belong to the compound of their own block, whether it stands above or below them.

Key:
Caco‐2 cell monolayers = assay: Metformin apparent permeability across polarised Caco-2 cell monolayers with and without inhibitors; format: in vitro ADME; conditions: therapeutic intestinal concentrations of inhibitor
Description: (§1) Caco‐2 cells between passage numbers 50–60 were used for experiments. Cells were seeded in cell culture medium (consisting of DMEM supplemented with 10% (w/v) fetal bovine serum, 2 mmol/L L‐glutamine, 1% (v/v) nonessential amino acids, 50 U/mL penicillin and 50 μg/mL streptomycin) onto Millicell‐96 multiwell insert plates at 1 × 10^5 cells/cm^2 and cultured at 37°C in an atmosphere of 5% CO2 with a relative humidity of 95 %. Media was changed every two or three days and plates were used for transport studies on day 20 postseeding. Cell monolayers were washed twice with prewarmed (37°C) transport buffer (HBSS containing 25 mmol/L HEPES and 4.45 mmol/L glucose, pH 7.4) for basolateral compartments and prewarmed MES‐transport buffer (HBSS containing 10 mmol/L MES and 4.45 mmol/L glucose, pH 6.5) for apical compartments. […] Transport buffer or MES‐transport buffer containing DMSO or test inhibitor was added to the corresponding receiver compartments. Donor and receiver solutions contained a final DMSO concentration of ≤1 % (v/v). […] The amount of lucifer yellow appearing in the receiver compartments was quantified on a fluorescence plate reader and used to calculate permeation across the cell monolayer.

[1] = Perpetrator drug plasma Cmax in clinical interaction studies with metformin; format: in vivo, human; conditions: f u × C max
[2] = molecular target: T1, multidrug and toxin extrusion protein (MATE) 1 (SLC47A1) (Homo sapiens, UniProt Q96FL8); set-up: method as in Kusuhara et al. 2011; Ito et al. 2012; Müller et al. 2015; conditions: ref Kusuhara et al. 2011; Ito et al. 2012; Müller et al. 2015; cited from earlier work
T1 sequence (Q96FL8 1-570): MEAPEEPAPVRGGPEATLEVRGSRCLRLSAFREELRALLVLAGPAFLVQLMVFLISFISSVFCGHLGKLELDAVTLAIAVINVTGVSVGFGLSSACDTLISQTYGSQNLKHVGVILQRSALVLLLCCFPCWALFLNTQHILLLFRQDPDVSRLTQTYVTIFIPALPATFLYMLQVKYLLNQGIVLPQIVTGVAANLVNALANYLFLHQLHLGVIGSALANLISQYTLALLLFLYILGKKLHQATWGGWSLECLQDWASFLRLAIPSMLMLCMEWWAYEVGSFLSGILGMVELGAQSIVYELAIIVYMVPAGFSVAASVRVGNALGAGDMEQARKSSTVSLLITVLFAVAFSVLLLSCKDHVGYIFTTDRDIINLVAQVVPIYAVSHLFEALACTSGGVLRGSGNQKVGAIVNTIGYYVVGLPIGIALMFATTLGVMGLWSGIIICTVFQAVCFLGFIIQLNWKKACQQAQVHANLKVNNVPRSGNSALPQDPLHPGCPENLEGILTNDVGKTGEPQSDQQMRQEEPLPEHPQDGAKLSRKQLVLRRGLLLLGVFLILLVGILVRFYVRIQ

[3] = cited from earlier work
[4] = cited from earlier work; for increase in the plasma exposure (AUC) of metformin in clinical DDIs: ref Somogyi et al. 1987, Wang et al. 2008, Grün et al. 2013, Müller et al. 2015, Kusuhara et al. 2011
[5] = molecular target: T2, human organic cation transporter (OCT) 1 (SLC22A1) (Homo sapiens, UniProt O15245); assay: cell-based
T2 sequence (O15245 1-554): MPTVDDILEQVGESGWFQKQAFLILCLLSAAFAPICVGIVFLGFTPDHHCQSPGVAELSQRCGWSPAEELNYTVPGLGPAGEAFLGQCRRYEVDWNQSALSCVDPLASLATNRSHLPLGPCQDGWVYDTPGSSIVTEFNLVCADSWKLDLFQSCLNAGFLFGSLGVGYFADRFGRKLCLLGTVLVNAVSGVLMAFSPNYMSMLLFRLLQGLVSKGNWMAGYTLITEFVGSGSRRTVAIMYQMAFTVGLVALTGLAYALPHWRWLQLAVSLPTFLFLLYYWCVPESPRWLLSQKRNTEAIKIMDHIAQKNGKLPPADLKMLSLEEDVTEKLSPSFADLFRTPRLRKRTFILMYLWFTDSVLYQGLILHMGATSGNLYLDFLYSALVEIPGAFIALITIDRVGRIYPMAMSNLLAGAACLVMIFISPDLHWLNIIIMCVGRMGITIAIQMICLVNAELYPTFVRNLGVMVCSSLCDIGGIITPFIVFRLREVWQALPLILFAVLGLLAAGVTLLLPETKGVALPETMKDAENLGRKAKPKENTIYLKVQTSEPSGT

[6] = read-out: [C max] mean steady-state total plasma concentration, cited from earlier work
[7] = molecular target: T1, multidrug and toxin extrusion protein (MATE) 1 (SLC47A1); assay: In vitro SLC transporter inhibition: MATE1-mediated [14C]-metformin uptake; format: cell-based
[8] = Metformin apparent permeability across polarised Caco-2 cell monolayers with and without inhibitors; format: in vitro ADME; conditions: human, Caco-2, pH 6.5
Description: as §1

[9] = Metformin human mass balance and renal clearance; format: in vivo
[10] = molecular target: T1, multidrug and toxin extrusion protein (MATE) 1 (SLC47A1); conditions: MATE1-mediated metformin uptake, 1.5 min, 37°C; ±SE from fitting
MATE2‐K (SLC47A2) = MATE2‐K (SLC47A2) (Homo sapiens, UniProt Q86VL8); conditions: MATE2-K-mediated metformin uptake, 1.5 min, 37°C; ±SE from fitting
MATE2‐K (SLC47A2), sequence (Q86VL8 1-566 isoform Q86VL8-3): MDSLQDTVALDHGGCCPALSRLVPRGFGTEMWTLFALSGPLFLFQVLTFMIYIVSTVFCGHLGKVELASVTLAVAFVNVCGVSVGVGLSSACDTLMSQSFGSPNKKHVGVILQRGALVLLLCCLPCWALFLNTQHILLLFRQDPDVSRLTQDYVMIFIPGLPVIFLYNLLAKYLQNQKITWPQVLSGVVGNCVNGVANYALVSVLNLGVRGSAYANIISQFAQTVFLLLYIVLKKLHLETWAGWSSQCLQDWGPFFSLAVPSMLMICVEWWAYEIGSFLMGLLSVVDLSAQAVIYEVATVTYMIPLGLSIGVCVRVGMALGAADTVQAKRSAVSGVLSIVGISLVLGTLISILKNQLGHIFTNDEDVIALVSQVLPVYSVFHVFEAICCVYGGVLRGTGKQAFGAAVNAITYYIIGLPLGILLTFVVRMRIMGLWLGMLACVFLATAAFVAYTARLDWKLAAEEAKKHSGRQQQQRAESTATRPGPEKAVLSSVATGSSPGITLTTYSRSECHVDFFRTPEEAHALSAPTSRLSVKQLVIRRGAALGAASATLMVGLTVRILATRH

[11] = oral metformin human mass balance, average; ref Pentikäinen et al. 1979; Tucker et al. 1981; Kusuhara et al. 2011; cited from earlier work
Mate1 = system: Mate1; set-up: method as in Tsuda et al. 2009a; conditions: intravenous administration; ref Tsuda et al. 2009a; cited from earlier work
Oct1/2 = system: Oct1/2; set-up: method as in Higgins et al. 2012; conditions: oral administration; ref Higgins et al. 2012; cited from earlier work
[12] = first-listed (or only) clinical study

- effect on enhancing metformin absorptive permeability across Caco‐2 cells (Caco‐2 cell monolayers): absence of an effect
- [C max free] [1, 12]: 7.68 µM
- [C max free] ([1]; second-listed clinical study): 4.08 µM
- IC50 [5]: 275 ± 32.2 µM
Structure (SMILES): CN/C(=N/CCSCc1nc[nH]c1C)NC#N [Cimetidine, cimetidine]
- mode of inhibition of MATE1 [2]: competitive inhibitors
- f u (fraction unbound) ([3]; ref Somogyi and Gugler (1983)): 0.80 ^a
- increase in the plasma exposure (AUC) of metformin in clinical DDIs [4]: < 2 fold
- Cmax ([6]; cimetidine 400 mg, first value, study with metformin 250 mg, ref Somogyi et al. (1987)): 9.6 µM
- Cmax ([6]; cimetidine 400 mg, second value, study with metformin 500 mg, ref Wang et al. (2008)): 5.1 µM

Structure (SMILES): CCc1nc(N)nc(N)c1-c1ccc(Cl)cc1 [Pyrimethamine, pyrimethamine]
- MATE1 K i ([7]; equates to IC50 (probe ≪≪ Km, assuming competitive inhibition)): 0.131 µM
- IC50 (≅K i) values MATE1 ([7]; probe [14C]-metformin 100 μmol/L, 1.5 min, mean ± SD of three experiments): 0.131 ± 0.0401 µM
- effect on enhancing metformin absorptive permeability across Caco‐2 cells (Caco‐2 cell monolayers): absence of an effect
- [C max free] [1, 12]: 0.298 µM
- mode of inhibition of MATE1 [2]: competitive inhibitors
- increase in the plasma exposure (AUC) of metformin in clinical DDIs [4]: < 2 fold
- IC50 [5]: 4.46 ± 0.77 µM
- Cmax ([6]; pyrimethamine 50 mg, study with metformin 250 mg, ref Kusuhara et al. (2011)): 2.29 µM

- effect on enhancing metformin absorptive permeability across Caco‐2 cells (Caco‐2 cell monolayers): absence of an effect
- [C max free] [1, 12]: 7.84 µM
- [C max free] ([1]; second-listed clinical study): 4.26 µM
Structure (SMILES): COc1cc(Cc2cnc(N)nc2N)cc(OC)c1OC [Trimethoprim, trimethoprim]
- f u (fraction unbound) ([3]; ref Bactrim and Daraprim drug labels (Drugs@FDA database)): 0.56
- increase in the plasma exposure (AUC) of metformin in clinical DDIs [4]: < 2 fold

- Papp A→B at 90 min ([8]; read-out: Papp A‐B (apical to basolateral)): ~0.5 ×10⁻⁶ cm/s
- Papp B→A at 90 min ([8]; read-out: Papp B‐A (basolateral to apical)): ~0.5 ×10⁻⁶ cm/s
- fraction excreted value, ƒe, renal active transport ([9]; derived from intravenous administration of metformin): 0.66
- fraction excreted value, ƒe, renal active transport ([9]; derived from oral administration of metformin): 0.39
- K m (MATE2‐K (SLC47A2)): 2.986 ± 0.817 mM
- V max (MATE2‐K (SLC47A2)): 32147 ± 3401 pmol/min/mg protein
Structure (SMILES): CN(C)C(=N)N=C(N)N [metformin, Metformin]
- K m [10]: 4.565 ± 0.903 mM
- V max [10]: 141000 ± 12283 pmol/min/mg protein
- share of the dose eliminated in urine [11]: 52%
- increase in metformin AUC in Mate1(−/−) null mice compared with wildtype (Mate1): 4.2 fold
- increase in metformin AUC in Oct1/2(−/−) mice (Oct1/2): 2.9 fold

Structure (SMILES): CNC(=C[N+](=O)[O-])NCCSCc1csc(CN(C)C)n1 [nizatidine]
- effect on metformin AUC in clinical interaction study ([4]; ref Morrissey et al. 2016): did not increase metformin AUC
